Experimental data reported in patent US10351553B2, “Potassium channel modulators” (Cadent Therapeutics, Inc., priority 2017, dated 2019).
Values after ≈ are worked out from the molar mass of the structure shown. Like-named read-outs stand apart in the source and are kept apart here.

What was measured:
harmaline induced tremor = assay: Harmaline induced tremor, tremor events by forepaw transmitter band; assay type: in vivo, rat
Protocol: Immediately following harmaline injection, animals were placed in the tremor quantification apparatus and tremor events were quantified for 60 minutes. A tremor event signal was generated when a small metal transmitter band fitted to the right forepaw of the animal moved within the electromagnetic field generated by a loop antenna within the testing apparatus. Outputs from the amplifier were digitized at a sampling rate of 1,000 Hz and the signal was processed and analyzed using LabView software (National Instruments). To minimize signal from ambulatory and grooming behavior, the signal was filtered with a 128-ms unweighted moving average filter, and events with amplitudes>0.5 V and lasting>300 ms in duration were counted as a tremor event. Data were analyzed in one-minute bins over the course of the test and presented as the sum of tremor events over the entire 60 minute test.

harmaline-induced tremor = assay: Harmaline-induced whole body tremor, force-plate accelerometer (Tremor Monitor); assay type: in vivo
Protocol: Whole body tremor was measured by a San Diego Instruments Tremor Monitor (San Diego, Calif., USA). […] Tremor was measured for 30 minutes following harmaline administration, and data were analyzed by fast Fourier transform and reported as a frequency power spectrum. Harmaline induced a significant increase in the power spectrum in a band of frequencies between 10 and 14 Hz. […] Data were further analyzed by calculating the percent Motion Power (% MP), defined as the power in the 9-13 Hz band divided by the total power across the spectrum (0-30 Hz) multiplied by 100.

[1] = Brain concentration by LC-MS from brains harvested after tremor recording; assay type: in vivo; details: Sprague Dawley, rat, oral, 30 mg/Kg
Protocol: (§1) The extent to which compounds modulate SK2 channels in vivo is expressed as % SK2 SC100, which is the ratio of the concentration of the drug free in the brain to the measured potency of the compound on the SK2 channel. It is calculated as follows: CFB=CMB×BFF, where CMB is the concentration of compound measured by liquid chromatography mass spectrometry from brains harvested immediately following tremor recording (Table 1, “Measured Brain Concentration”). CFB is the amount of free compound not complexed with protein and therefore free to interact with the SK2 channel (Table 1, “Calculated Free Brain Concentration”). BFF is average free fraction of compound as measured by equilibrium dialysis in separate experiments (1 uM test concentration incubated in 10% rat brain tissue homogenate for 5 hours at 37° C.) (Table 1, “Brain Free Fraction”). Free drug in brain available to interact with SK2 channels (CFB) is arrived at by multiplying the measured total brain level (CMB) by the average free fraction (BFF).
The amount of free compound is then expressed in terms of its potency against the SK2 channel as follows: % SK2 SC100=CFB/SK2 SC100×100, where SK2 SC100 (Table 1, “SK2 SC100”) is the measured value of potency of the compound on SK2 channels and % SK2 SC100 (Table 1, “% SK2 SC100”) is the free brain concentration (CFB) normalized to SK2 SC100.

[2] = Brain free fraction by equilibrium dialysis in rat brain tissue homogenate; assay type: in vitro ADME; details: 10% rat brain tissue homogenate, Tables 2 and 3
Protocol: as §1

Purkinje neurons = assay: Purkinje cell firing irregularity in ex vivo cerebellar slices from SCA2 58Q transgenic mice; assay type: cell-based, mouse; details: bath application of 1 or 3 μM; slices from eleven-month old SCA2 58Q mice; P<0.05; FIG. 3
From the text: The difference in ISI CV between wild-type (N=8) and SCA2 58Q (N=11) mice is illustrated in FIG. 3 (P<0.005).

[3] = Aqueous (kinetic) solubility, shake-flask, phosphate buffer pH 7.4; assay type: physicochemical; details: 23 °C, kinetic from dmso stock, phosphate buffer pH 7.4, 16 hours at room temperature
Protocol: Aqueous solubility (kinetic solubility) tests of the compounds were performed in phosphate buffer saline (pH 7.4) measured by shake-flask method. In this assay, DMSO stock solution of test compound is added to buffer followed by equilibration (shaking), filtration and determination of soluble amount by HPLC-UV Conditions used in the assay are summarized below.

[4] = Metabolic stability in liver microsomes, mouse; assay type: in vitro ADME; details: % remaining at 1 hour; 1 μM
Protocol: (§2) Metabolic stability profiling of the compounds was performed in liver microsomes. In this assay, test compound is incubated with liver microsomes in the presence of NADPH for 2 time points at 37° C. At the end of incubation, reaction is quenched with acetonitrile containing internal standard and the parent compound remaining is determined by LC-MS/MS. Conditions used in the assay are summarized below. […], 37° C. • Test concentration: 1 μM in 0.02% DMSO at pH 7.4 (n=2) • NADPH concentration in assay: 1 mM • Liver microsome protein concentration in assay: 0.5 mg/ml • Analysis: LC-MS/MS • Data reported: % Parent Compound Remaining (% PCR) • Reference compounds for high and low clearance are included • Species tested: mouse, rat, dog, monkey, and human

[5] = Metabolic stability in liver microsomes, rat; assay type: in vitro ADME; details: % remaining at 1 hour; 1 μM
Protocol: as §2

[6] = Metabolic stability in liver microsomes, monkey; assay type: in vitro ADME; details: % remaining at 1 hour; 1 μM
Protocol: as §2

[7] = Metabolic stability in liver microsomes, human; assay type: in vitro ADME; details: % remaining at 1 hour; 1 μM
Protocol: as §2

[8] = Oral bioavailability in rat; assay type: in vivo; details: male, Sprague Dawley, plasma; 10 mg/kg PO, 0.5 mg/kg IV in rat
From the text: Oral bioavailability data was collected in rat as follows.

Structure (SMILES)	Effect on harmaline induced tremor (sum of tremor events over 60 minutes) (harmaline induced tremor; 30 mg/Kg oral, 30 minutes prior to harmaline, male Sprague Dawley rats, FIG. 1)	Minimally Efficacious Dose (harmaline induced tremor; harmaline induced tremor, oral administration)	Effect on percent Motion Power (% MP) (harmaline-induced tremor; 3 mg/kg P<0.01, 10 and 30 mg/kg P<0.05, orally, FIG. 2)	Effect on harmaline-induced power spectrum, 10 to 14 Hz band (harmaline-induced tremor; 3, 10, and 30 mg/kg orally 30 minutes prior to 5 mg/kg harmaline i.p.)	concentration at 90 min ([1]; CFB=CMB×BFF, read-out: Calculated Free Brain Concentration)	concentration at 90 min ([1]; brains harvested immediately following tremor recording, minimally efficacious dose, read-out: Measured Brain Concentration)	fraction unbound at 5 h, 1 uM [2]	Effect on coefficient of variation of the interspike interval (ISI CV) (Purkinje neurons)	solubility kinetic at 16 h [3]	Liver microsome stability, Mouse [4]	Liver microsome stability, Rat [5]	Liver microsome stability, Monkey [6]	Liver microsome stability, Human [7]	bioavailability [8]
Cc1ccn(-c2nc(NC3CCC(F)(F)CC3)cc(N3CCOCC3)n2)n1 [Compound 1, N-(4,4-difluorocyclohexyl)-2-(3-methyl-1H-pyrazol-1-yl)-6-morpholinopyrimidin-4-amine]	significant inhibition of tremors	30 mg/kg	significantly reduced harmaline-induced tremor	significantly reduced tremor	80 nM	1300 nM	0.061	partially reversed the increase in ISI CV	74 µg/mL (≈ 196 µM)	47%	60%	46%	84%	81%
Cc1cc(NC2CCCCC2)nc(-n2nc(C)cc2C)n1 [Comparator A, reference compound]							0.012		17 µg/mL (≈ 59.6 µM)	1%	1%	1%	50%	5%
